Data published in US20120029187A1, “HALOALKYLSULFONANILIDE DERIVATIVE” (Nissan Chemical Industries, Ltd., priority 2009, published 2012).

How the values were obtained:
Assay type in all cases: in vivo
barnyardgrass [1] = test: Test Example 1: herbicidal effects in preemergence treatment under submerged conditions; details: dose 2.52 g/a
How it was run: (§1)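 Submerged conditions, 4 cm water over alluvial soil. Weeds sown and 2.5-leaf rice transplanted; compound applied preemergence to water surface, doses in g per are. Greenhouse, 25 to 30° C., three weeks, then 0–5 mortality rating.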

bulrush [2] = test: as above; details: dose 2.52 g/a
How it was run: as §1

ducksalad [3] = test: as above; details: dose 2.52 g/a
How it was run: as §1

transplanted rice = test: Test Example 1: preemergence treatment under submerged conditions, effect on crop; details: dose 2.52 g/a
How it was run: as §1

barnyardgrass [4] = test: Test Example 2: herbicidal effects during the vegetation period under submerged conditions; details: treatment during the vegetation period under submerged conditions; dose 2.52 g/a
How it was run: (§2)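 Barnyardgrass, bulrush and ducksalad were co-sown in alluvial soil flooded to 4 cm and grown in a greenhouse at 25 to 30° C. At the 1- or 2-leaf stage, water-diluted emulsifiable concentrates went onto the water surface at set doses (g/a). Herbicidal effect was scored three weeks later on a graded scale.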

bulrush [5] = test: as above; details: treatment during the vegetation period under submerged conditions; dose 2.52 g/a
How it was run: as §2

ducksalad [6] = test: as above; details: treatment during the vegetation period under submerged conditions; dose 2.52 g/a
How it was run: as §2

Italian ryegrass [7] = test: Test Example 3: herbicidal effects in soil treatment; details: dose 3.2 g/a
How it was run: (§3)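 Seeds were sown in sterilized diluvial soil and covered with about 1.5 cm of soil. Compounds, formulated as emulsifiable concentrates and diluted with water, were sprayed evenly over the soil surface at set doses in g/a. Herbicidal effect was scored on a rating scale three weeks later.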

barnyardgrass [8] = test: as above; details: dose 3.2 g/a
How it was run: as §3

beadstraw [9] = test: as above; details: dose 3.2 g/a
How it was run: as §3

common chickweed [10] = test: as above; details: dose 3.2 g/a
How it was run: as §3

common lambsquater [11] = test: as above; details: dose 3.2 g/a
How it was run: as §3

common ragweed [12] = test: as above; details: dose 3.2 g/a
How it was run: as §3

giant foxtail [13] = test: as above; details: dose 3.2 g/a
How it was run: as §3

large crabgrass [14] = test: as above; details: dose 3.2 g/a
How it was run: as §3

redroot pigweed [15] = test: as above; details: dose 3.2 g/a
How it was run: as §3

velvetleaf [16] = test: as above; details: dose 3.2 g/a
How it was run: as §3

water foxtail [17] = test: as above; details: dose 3.2 g/a
How it was run: as §3

wild oat [18] = test: as above; details: dose 3.2 g/a
How it was run: as §3

Italian ryegrass [19] = test: Test Example 4: herbicidal effect in foliage treatment; details: dose 3.2 g/a
How it was run: (§4)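 Seeds were spot-sown in boxes of sterilized diluvial soil and raised in a greenhouse (25 to 30° C) for 14 days before a single foliar application. Compounds were applied as emulsifiable concentrates diluted with water, at predetermined doses in g/a. Injury was graded three weeks post-spray.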

barnyardgrass [20] = test: as above; details: dose 3.2 g/a
How it was run: as §4

beadstraw [21] = test: as above; details: dose 3.2 g/a
How it was run: as §4

common chickweed [22] = test: as above; details: dose 3.2 g/a
How it was run: as §4

common lambsquater [23] = test: as above; details: dose 3.2 g/a
How it was run: as §4

common ragweed [24] = test: as above; details: dose 3.2 g/a
How it was run: as §4

giant foxtail [25] = test: as above; details: dose 3.2 g/a
How it was run: as §4

large crabgrass [26] = test: as above; details: dose 3.2 g/a
How it was run: as §4

posumbu knotweed = test: as above; details: dose 3.2 g/a
How it was run: as §4

redroot pigweed [27] = test: as above; details: dose 3.2 g/a
How it was run: as §4

velvetleaf [28] = test: as above; details: dose 3.2 g/a
How it was run: as §4

water foxtail [29] = test: as above; details: dose 3.2 g/a
How it was run: as §4

wild oat [30] = test: as above; details: dose 3.2 g/a
How it was run: as §4

[31] = three weeks after the application

SMILES: CCOC(=O)N(c1ccccc1CN1CSCCC1=O)S(=O)(=O)C(F)(F)F [II-79]
- A: barnyardgrass, herbicidal effect (evaluation scale 0-5) (barnyardgrass [1]): 5 (mortality of 90% or above (nearly complete death))
- B: bulrush, herbicidal effect (evaluation scale 0-5) (bulrush [2]): 5 (mortality of 90% or above (nearly complete death))
- C: ducksalad, herbicidal effect (evaluation scale 0-5) (ducksalad [3]): 5 (mortality of 90% or above (nearly complete death))
- a: transplanted rice, effect on crop (evaluation scale 0-5) (transplanted rice): 0 (mortality of less than 5% (almost ineffective))
- A: barnyardgrass, herbicidal effect (evaluation scale 0-5) (barnyardgrass [4]): 5 (mortality of 90% or above (nearly complete death))
- B: bulrush, herbicidal effect (evaluation scale 0-5) (bulrush [5]): 5 (mortality of 90% or above (nearly complete death))
- C: ducksalad, herbicidal effect (evaluation scale 0-5) (ducksalad [6]): 5 (mortality of 90% or above (nearly complete death))
- herbicidal effect, H: Italian ryegrass (Italian ryegrass [7]): 3 (mortality of at least 40% and less than 70%)
- herbicidal effect, A: barnyardgrass (barnyardgrass [8]): 5 (mortality of 90% or above (nearly complete death))
- herbicidal effect, O: beadstraw (beadstraw [9]): 0 (mortality of less than 5% (almost ineffective))
- herbicidal effect, N: common chickweed (common chickweed [10]): 4 (mortality of at least 70% and less than 90%)
- herbicidal effect, L: common lambsquater (common lambsquater [11]): 3 (mortality of at least 40% and less than 70%)
- herbicidal effect, J: common ragweed (common ragweed [12]): 4 (mortality of at least 70% and less than 90%)
- herbicidal effect, E: giant foxtail (giant foxtail [13]): 5 (mortality of 90% or above (nearly complete death))
- herbicidal effect, D: large crabgrass (large crabgrass [14]): 5 (mortality of 90% or above (nearly complete death))
- herbicidal effect, K: redroot pigweed (redroot pigweed [15]): 2 (mortality of at least 20% and less than 40%)
- herbicidal effect, I: velvetleaf (velvetleaf [16]): 5 (mortality of 90% or above (nearly complete death))
- herbicidal effect, G: water foxtail (water foxtail [17]): 5 (mortality of 90% or above (nearly complete death))
- herbicidal effect, F: wild oat (wild oat [18]): 0 (mortality of less than 5% (almost ineffective))
- H: Italian ryegrass, herbicidal effect (Italian ryegrass [19]; [31]): 3 (mortality of at least 40% and less than 70%)
- A: barnyardgrass, herbicidal effect (barnyardgrass [20]; [31]): 5 (mortality of 90% or above (nearly complete death))
- O: beadstraw, herbicidal effect (beadstraw [21]; [31]): 4 (mortality of at least 70% and less than 90%)
- N: common chickweed, herbicidal effect (common chickweed [22]; [31]): 4 (mortality of at least 70% and less than 90%)
- L: common lambsquater, herbicidal effect (common lambsquater [23]; [31]): 3 (mortality of at least 40% and less than 70%)
- J: common ragweed, herbicidal effect (common ragweed [24]; [31]): 4 (mortality of at least 70% and less than 90%)
- E: giant foxtail, herbicidal effect (giant foxtail [25]; [31]): 4 (mortality of at least 70% and less than 90%)
- D: large crabgrass, herbicidal effect (large crabgrass [26]; [31]): 4 (mortality of at least 70% and less than 90%)
- M: posumbu knotweed, herbicidal effect (posumbu knotweed; [31]): 4 (mortality of at least 70% and less than 90%)
- K: redroot pigweed, herbicidal effect (redroot pigweed [27]; [31]): 1 (mortality of at least 5% and less than 20%)
- I: velvetleaf, herbicidal effect (velvetleaf [28]; [31]): 4 (mortality of at least 70% and less than 90%)
- G: water foxtail, herbicidal effect (water foxtail [29]; [31]): 5 (mortality of 90% or above (nearly complete death))
- F: wild oat, herbicidal effect (wild oat [30]; [31]): 0 (mortality of less than 5% (almost ineffective))

SMILES: CCCOC(=O)N(c1ccccc1CN1COC(C)(C)C(F)C1=O)S(=O)(=O)C(F)(F)F (stereo not shown) [II-35]
- A: barnyardgrass, herbicidal effect (evaluation scale 0-5) (barnyardgrass [1]): 5 (mortality of 90% or above (nearly complete death))
- B: bulrush, herbicidal effect (evaluation scale 0-5) (bulrush [2]): 5 (mortality of 90% or above (nearly complete death))
- C: ducksalad, herbicidal effect (evaluation scale 0-5) (ducksalad [3]): 5 (mortality of 90% or above (nearly complete death))
- a: transplanted rice, effect on crop (evaluation scale 0-5) (transplanted rice): 0 (mortality of less than 5% (almost ineffective))
- A: barnyardgrass, herbicidal effect (evaluation scale 0-5) (barnyardgrass [4]): 5 (mortality of 90% or above (nearly complete death))
- B: bulrush, herbicidal effect (evaluation scale 0-5) (bulrush [5]): 5 (mortality of 90% or above (nearly complete death))
- C: ducksalad, herbicidal effect (evaluation scale 0-5) (ducksalad [6]): 5 (mortality of 90% or above (nearly complete death))
- H: Italian ryegrass, herbicidal effect (evaluation scale 0-5) (Italian ryegrass [7]): 4 (mortality of at least 70% and less than 90%)
- A: barnyardgrass, herbicidal effect (evaluation scale 0-5) (barnyardgrass [8]): 5 (mortality of 90% or above (nearly complete death))
- O: beadstraw, herbicidal effect (evaluation scale 0-5) (beadstraw [9]): 4 (mortality of at least 70% and less than 90%)
- N: common chickweed, herbicidal effect (evaluation scale 0-5) (common chickweed [10]): 1 (mortality of at least 5% and less than 20%)
- L: common lambsquater, herbicidal effect (evaluation scale 0-5) (common lambsquater [11]): 0 (mortality of less than 5% (almost ineffective))
- J: common ragweed, herbicidal effect (evaluation scale 0-5) (common ragweed [12]): 4 (mortality of at least 70% and less than 90%)
- E: giant foxtail, herbicidal effect (evaluation scale 0-5) (giant foxtail [13]): 3 (mortality of at least 40% and less than 70%)
- D: large crabgrass, herbicidal effect (evaluation scale 0-5) (large crabgrass [14]): 5 (mortality of 90% or above (nearly complete death))
- K: redroot pigweed, herbicidal effect (evaluation scale 0-5) (redroot pigweed [15]): 2 (mortality of at least 20% and less than 40%)
- I: velvetleaf, herbicidal effect (evaluation scale 0-5) (velvetleaf [16]): 3 (mortality of at least 40% and less than 70%)
- G: water foxtail, herbicidal effect (evaluation scale 0-5) (water foxtail [17]): 5 (mortality of 90% or above (nearly complete death))
- F: wild oat, herbicidal effect (evaluation scale 0-5) (wild oat [18]): 3 (mortality of at least 40% and less than 70%)
- H: Italian ryegrass, herbicidal effect (Italian ryegrass [19]; three weeks after application): 4 (mortality of at least 70% and less than 90%)
- A: barnyardgrass, herbicidal effect (barnyardgrass [20]; three weeks after application): 5 (mortality of 90% or above (nearly complete death))
- O: beadstraw, herbicidal effect (beadstraw [21]; three weeks after application): 4 (mortality of at least 70% and less than 90%)
- N: common chickweed, herbicidal effect (common chickweed [22]; three weeks after application): 3 (mortality of at least 40% and less than 70%)
- L: common lambsquater, herbicidal effect (common lambsquater [23]; three weeks after application): 1 (mortality of at least 5% and less than 20%)
- J: common ragweed, herbicidal effect (common ragweed [24]; three weeks after application): 3 (mortality of at least 40% and less than 70%)
- E: giant foxtail, herbicidal effect (giant foxtail [25]; three weeks after application): 3 (mortality of at least 40% and less than 70%)
- D: large crabgrass, herbicidal effect (large crabgrass [26]; three weeks after application): 5 (mortality of 90% or above (nearly complete death))
- M: posumbu knotweed, herbicidal effect (posumbu knotweed; three weeks after application): 3 (mortality of at least 40% and less than 70%)
- K: redroot pigweed, herbicidal effect (redroot pigweed [27]; three weeks after application): 1 (mortality of at least 5% and less than 20%)
- I: velvetleaf, herbicidal effect (velvetleaf [28]; three weeks after application): 0 (mortality of less than 5% (almost ineffective))
- G: water foxtail, herbicidal effect (water foxtail [29]; three weeks after application): 5 (mortality of 90% or above (nearly complete death))
- F: wild oat, herbicidal effect (wild oat [30]; three weeks after application): 0 (mortality of less than 5% (almost ineffective))
